Experiment [1] has as its target T1, Induced myeloid leukemia cell differentiation protein Mcl-1 (Homo sapiens, UniProt Q07820). As to the kind of experiment: Displacement of biotinylated BH3 peptide from N-terminal His6-tagged human Mcl-1 ligand binding domain (172 to 323 residues) expressed in Escherichia coli BL21(DE3) gold pLysS cells preincubated with protein for 2 hrs followed by incubation with BH3 peptide for 2 hrs by DELFIA assay.

Experiment [2] concerns the target T1, Induced myeloid leukemia cell differentiation protein Mcl-1. As to the kind of experiment: Covalent binding affinity to N-terminal His6-tagged human Mcl-1 ligand binding domain (172 to 323 residues) expressed in Escherichia coli BL21(DE3) gold pLysS cells assessed as stable covalent adduct formation by measuring band shift at 100 uM incubated for 16 hrs by SDS PAGE analysis.

The species entered for experiment [3] is Homo sapiens. As to the kind of experiment: Covalent binding affinity to N-terminal His6-tagged human Mcl-1 ligand binding domain (172 to 323 residues) Lys234Ala mutant expressed in Escherichia coli BL21(DE3) gold pLysS cells assessed as stable covalent adduct formation by measuring band shift at 100 uM incubated for 16 hrs by SDS PAGE analysis.
For experiment [4], the species on record is Homo sapiens. As to the kind of experiment: Covalent binding affinity to N-terminal His6-tagged human Mcl-1 ligand binding domain (172 to 323 residues) His252Ala mutant expressed in Escherichia coli BL21(DE3) gold pLysS cells assessed as stable covalent adduct formation by measuring band shift at 100 uM incubated for 16 hrs by SDS PAGE analysis.
Experiment [5] deals with T2, Bcl-2-related protein A1 (Homo sapiens) (UniProt Q16548).
T2 sequence (whole entry): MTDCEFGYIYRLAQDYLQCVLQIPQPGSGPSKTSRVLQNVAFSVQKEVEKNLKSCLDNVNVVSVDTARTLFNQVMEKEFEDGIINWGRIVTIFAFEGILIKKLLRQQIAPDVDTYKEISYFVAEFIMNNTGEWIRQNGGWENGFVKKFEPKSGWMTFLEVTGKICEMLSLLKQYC
As to the kind of experiment: Covalent binding affinity to N-terminal His6-tagged human Bfl-1 (1 to 149 residues) assessed as band shift at 100 uM incubated for 16 hrs by SDS PAGE analysis.

Each structure is given as a SMILES string. Active and inactive are the calls of the source. The calls are words filed in the database; no cut-off is given here. Positions of bridges follow the written chain, without caps; N, C: chain ends. Non-standard residues stand in square brackets, D forms with d. Residues, ends and D or L forms follow the SMILES beside them. *: point of attachment. Benzoyl(2-OMe,5-SO2F) = COc1ccc(S(=O)(=O)F)cc1C(=O)*; Ser(allyl) = C=CCOC[C@H](N)C(=O)O; S5 = C=CCCC[C@](C)(N)C(=O)O; Dap = NC[C@H](N)C(=O)O

T1 sequence (Q07820 whole entry, the tested form may be a part): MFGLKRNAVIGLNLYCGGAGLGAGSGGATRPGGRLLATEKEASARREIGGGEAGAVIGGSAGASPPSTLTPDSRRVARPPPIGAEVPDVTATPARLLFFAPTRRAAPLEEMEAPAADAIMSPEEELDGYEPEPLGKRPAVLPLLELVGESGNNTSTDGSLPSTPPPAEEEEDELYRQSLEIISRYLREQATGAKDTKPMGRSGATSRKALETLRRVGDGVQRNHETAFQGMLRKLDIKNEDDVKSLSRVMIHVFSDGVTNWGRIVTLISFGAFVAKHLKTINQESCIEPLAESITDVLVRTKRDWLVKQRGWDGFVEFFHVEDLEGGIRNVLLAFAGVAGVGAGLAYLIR

In general, IC50 refers to the midpoint of a concentration-inhibition curve. High values mean a need for much substance, low ones inhibition by little substance. `CC[C@H](C)[C@H](NC(=O)[C@H](CCCNC(=N)N)NC(=O)[C@]1(C)CCC/C=C\CCC[C@](C)(NC(=O)[C@@H](NC(=O)[C@@H](CNC(=O)c2cc(S(=O)(=O)F)ccc2OC)NC(C)=O)[C@@H](C)CC)C(=O)N[C@H](CCC(=O)O)C(=O)N[C@@H](CCC(N)=O)C(=O)N[C@@H](CC(C)C)C(=O)N1)C(=O)NCC(=O)N[C@@H](CC(=O)O)C(=O)N[C@@H](CCCNC(=N)N)C(=O)N[C@@H](Cc1ccccc1)C(N)=O` had a half-inhibitory concentration (IC50) in experiment [1] of 0.174 µM. Besides, the outcome (in experiment [2]; in the experiment filed under Homo sapiens [3]; in the experiment listed under Homo sapiens [4]) was Active. The result in experiment [5] was inactive.

Regarding `CC[C@H](C)[C@H](NC(=O)[C@@H]1CCCCn2cc(nn2)CCC[C@H](NC(=O)[C@H](C)NC(=O)[C@@H](NC(=O)[C@H](CNC(=O)c2cc(S(=O)(=O)F)ccc2OC)NC(C)=O)[C@@H](C)CC)C(=O)N[C@@H](CCC(N)=O)C(=O)N[C@@H](CC(C)C)C(=O)N[C@@H](CCCNC(=N)N)C(=O)N1)C(=O)NCC(=O)N[C@@H](CC(=O)O)C(=O)N[C@@H](CCCNC(=N)N)C(=O)N[C@@H](Cc1ccccc1)C(N)=O`, the IC50 in experiment [1] was 0.021 µM. The result (in experiment [2]; in the experiment filed under Homo sapiens [3]; in the experiment listed under Homo sapiens [4]) was Active. The result in experiment [5] was inactive.

In turn, `CC[C@H](C)[C@H](NC(=O)[C@H](CCCNC(=N)N)NC(=O)[C@H](CCCNC(=N)N)NC(=O)[C@H](CC(C)C)NC(=O)[C@H](CCC(N)=O)NC(=O)[C@H](CCC(=O)O)NC(=O)[C@H](C)NC(=O)[C@@H](NC(=O)[C@H](CNC(=O)c1cc(S(=O)(=O)F)ccc1OC)NC(C)=O)[C@@H](C)CC)C(=O)NCC(=O)N[C@@H](CC(=O)O)C(=O)N[C@@H](CCCNC(=N)N)C(=O)N[C@@H](Cc1ccccc1)C(N)=O` (Ac-[Dap](Benzoyl(2-OMe,5-SO2F))IAEQLRRIGDRF-NH2) gave an IC50 in experiment [1] of 0.018 µM.

In turn, `CC[C@H](C)[C@H](NC(=O)[C@H](CNC(=O)c1cc(S(=O)(=O)F)ccc1OC)NC(C)=O)C(=O)N[C@@H](C)C(=O)N[C@@]1(C)CCC/C=C\CCC[C@@](C)(C(=O)N[C@H](C(=O)NCC(=O)N[C@@H](CC(=O)O)C(=O)N[C@@H](C)C(=O)N[C@@H](Cc2ccccc2)C(N)=O)[C@@H](C)CC)NC(=O)[C@H](CCCNC(=N)N)NC(=O)[C@H](CC(C)C)NC(=O)[C@H](CCC(N)=O)NC1=O` (Ac-[Dap](Benzoyl(2-OMe,5-SO2F))IA[S5]QLR[S5]IGDAF-NH2; staple (Z) 4-8) showed an IC50 in experiment [1] of 0.012 µM. Also, the result (in experiment [2]; in the experiment filed under Homo sapiens [3]; in the experiment listed under Homo sapiens [4]) was Active. The result in experiment [5] was inactive.

For the compound `CC[C@H](C)[C@H](NC(=O)[C@H](CNC(=O)c1cc(S(=O)(=O)F)ccc1OC)NC(C)=O)C(=O)N[C@@H](C)C(=O)N[C@@]1(C)CCC/C=C\CCC[C@@](C)(C(=O)N[C@H](C(=O)NCC(=O)N[C@@H](CC(=O)O)C(=O)N[C@@H](CCCNC(=N)N)C(=O)N[C@@H](Cc2ccccc2)C(N)=O)[C@@H](C)CC)NC(=O)[C@H](CCCNC(=N)N)NC(=O)[C@H](CC(C)C)NC(=O)[C@H](CCC(N)=O)NC1=O` (Ac-[Dap](Benzoyl(2-OMe,5-SO2F))IA[S5]QLR[S5]IGDRF-NH2; staple (Z) 4-8), the IC50 in experiment [1] was 0.014 µM. Besides, the outcome (in experiment [2]; in the experiment filed under Homo sapiens [3]; in the experiment listed under Homo sapiens [4]) was Active. Moreover, the result in experiment [5] was inactive.

Compound `CC[C@H](C)[C@H](NC(=O)[C@H](CNC(=O)c1cc(S(=O)(=O)F)ccc1OC)NC(C)=O)C(=O)N[C@@H](C)C(=O)N[C@H]1COC/C=C\CCC[C@@](C)(C(=O)N[C@H](C(=O)NCC(=O)N[C@@H](CC(=O)O)C(=O)N[C@@H](CCCNC(=N)N)C(=O)N[C@@H](Cc2ccccc2)C(N)=O)[C@@H](C)CC)NC(=O)[C@H](CCCNC(=N)N)NC(=O)[C@H](CC(C)C)NC(=O)[C@H](CCC(N)=O)NC1=O` (Ac-[Dap](Benzoyl(2-OMe,5-SO2F))IA[Ser(allyl)]QLR[S5]IGDRF-NH2; staple (Z) 4-8) showed an IC50 in experiment [1] of 0.0066 µM. Also, the result (in experiment [2]; in the experiment filed under Homo sapiens [3]; in the experiment listed under Homo sapiens [4]) was Active. In experiment [5], the outcome was inactive.

Compound `CC[C@H](C)[C@H](NC(=O)[C@H](C)NC(=O)[C@H](CCCNC(=N)N)NC(=O)[C@H](CC(C)C)NC(=O)[C@H](CCC(N)=O)NC(=O)[C@]1(C)CCC/C=C/CCC[C@](C)(NC(C)=O)C(=O)N[C@@H](CNC(=O)c2cc(S(=O)(=O)F)ccc2OC)C(=O)N[C@@H]([C@@H](C)CC)C(=O)N[C@@H](C)C(=O)N1)C(=O)NCC(=O)N[C@@H](CC(=O)O)C(=O)N[C@@H](C)C(=O)N[C@@H](Cc1ccccc1)C(N)=O` (Ac-[S5][Dap](Benzoyl(2-OMe,5-SO2F))IA[S5]QLRAIGDAF-NH2; staple (E) 1-5) had a 50% inhibitory concentration (IC50) in experiment [1] of 0.017 µM. Besides, the outcome (in experiment [2]; in the experiment listed under Homo sapiens [3]; in the experiment filed under Homo sapiens [4]) was Active. Further, the outcome in experiment [5] was inactive.

In experiment [1], `CC[C@H](C)[C@H](NC(=O)[C@H](C)NC(=O)[C@H](CCCNC(=N)N)NC(=O)[C@H](CC(C)C)NC(=O)[C@H](CCC(N)=O)NC(=O)[C@]1(C)CCC/C=C/CCC[C@](C)(NC(C)=O)C(=O)N[C@@H](CNC(=O)c2cc(S(=O)(=O)F)ccc2OC)C(=O)N[C@@H]([C@@H](C)CC)C(=O)N[C@@H](C)C(=O)N1)C(=O)NCC(=O)N[C@@H](CC(=O)O)C(=O)N[C@@H](CCCNC(=N)N)C(=O)N[C@@H](Cc1ccccc1)C(N)=O` (Ac-[S5][Dap](Benzoyl(2-OMe,5-SO2F))IA[S5]QLRAIGDRF-NH2; staple (E) 1-5) gave an IC50 of 0.035 µM. Further, the result (in experiment [2]; in the experiment listed under Homo sapiens [3]; in the experiment listed under Homo sapiens [4]) was Active. Further, in experiment [5], the outcome was inactive.

Regarding `CC[C@H](C)[C@H](NC(=O)[C@H](CC(=O)O)NC(=O)[C@H](CCCNC(=N)N)NC(=O)[C@H](CC(C)C)NC(=O)[C@H](CCC(N)=O)NC(=O)[C@]1(C)CCC/C=C/CCC[C@](C)(NC(C)=O)C(=O)N[C@@H](CNC(=O)c2cc(S(=O)(=O)F)ccc2OC)C(=O)N[C@@H]([C@@H](C)CC)C(=O)N[C@@H](C)C(=O)N1)C(=O)NCC(=O)N[C@@H](CC(=O)O)C(=O)N[C@@H](CCCNC(=N)N)C(=O)N[C@@H](Cc1ccccc1)C(N)=O` (Ac-[S5][Dap](Benzoyl(2-OMe,5-SO2F))IA[S5]QLRDIGDRF-NH2; staple (E) 1-5), the IC50 in experiment [1] amounted to 0.03 µM. Moreover, the outcome (in experiment [2]; in the experiment filed under Homo sapiens [3]; in the experiment filed under Homo sapiens [4]) was Active. In addition, the outcome in experiment [5] was inactive.

The record behind these values is ChEMBL document CHEMBL5550138, “Histidine-Covalent Stapled Alpha-Helical Peptides Targeting hMcl-1” (J Med Chem, 2024).
